The values below come from US12247004B2, “2-amino-N-(amino-oxo-aryl-lambda6-sulfanylidene)acetamide compounds and their therapeutic use” (Oxford Drug Design Limited, priority 2019, dated 2025).

In general, IC50 refers to the concentration that gives 50% inhibition.

Molecules are shown by their SMILES. Where two headings read alike, the source gives them in different places.

The target in data set [1] is Isoleucyl-tRNA synthetase (IleRS) (Escherichia coli (strain K12), UniProt P00956). The data set can be described thus: Isoleucyl-tRNA synthetase enzyme inhibition (AMP-Glo; single point % inhibition at 100 μM and IC50). In kind it is biochemical. The conditions noted are these: E. coli IleRS; read-out: Enzyme Inhibition - IC50, E. coli IleRS. From the text:
Study 1—Enzyme Inhibition
The aminoacylation reaction catalyzed by aminoacyl-tRNA synthetases (aaRS) takes place in two steps. In the first step, aaRS activates its cognate amino acid with ATP; and in the second step the activated amino acid is loaded to its corresponding tRNA. This reaction can be summarized as follows: aaRS+aa+ATP=aaRS-aa-AMP+PPi aaRS-aa-AMP+tRNA=aa-tRNA+AMP+aaRS […]
wherein: aaRS, aminoacyl-tRNA synthetase; aa, amino acid; aaRS-aa-AMP, enzyme-bound to aminoacyl-adenylate; AMP, adenosine monophosphate; aa-tRNA, aminoacyl-tRNA, PPi, inorganic pyrophosphate.
Isoleucyl-tRNA Synthetase a. Single Point Percentage Inhibition
The activity of the pathogenic aaRSs was monitored by measuring AMP production using the commercial kit AMP-Glo (Promega, Madison, USA).
Ligand stock solutions were prepared in 100% DMSO at 10 mM concentration. An assay buffer consisting of 100 mM Tris HCl pH 7.6, 40 mM MgCl, 20 mM KCl and 150 mM NaCl was prepared in dH2O. An enzyme solution containing 51.77 μM IleRS was prepared in assay buffer to provide 30 nM final assay concentration and 75 nM reservoir concentration for a 1:2.5 dilution in the assay. A substrate solution was also prepared in assay buffer with 50 mM L-isoleucine, 10 mM ATP and 100 mg/mL tRNA. A final assay concentration of 500 μM L-isoleucine, 5 μM ATP and 1 mg/mL tRNA and reservoir concentration of 833.33 μM L-isoleucine, 8.33 μM ATP and 1.67 mg/mL tRNA was used for a 1:1.66 dilution in assay.
Enzyme percentage inhibition values were recorded in triplicate at a single point concentration of 100 μM.
Using the same enzymatic assay in a 384-well plate format, ten point concentration response curves were generated for each compound using a top concentration of 100 μM. The known inhibitor, IleAMS was used as a positive control for the IleRS assay. 100% DMSO was used as a negative control. The IC50 was calculated based on non-linear regression analysis.

In data set [2] the target is Leucyl-tRNA synthetase (LeuRS) (Escherichia coli (strain K12), UniProt P07813). The data set can be described thus: Leucyl-tRNA synthetase enzyme inhibition (AMP-Glo; single point % inhibition at 100 μM and IC50). In kind it is biochemical.
A short description of data set [3]: Human cell viability / cytotoxicity (CellTiter-Glo, 24 hours). It counts as cell-based. The conditions noted are these: human, HepG2 cells (ATCC HB-8065); HepG2 ATCC HB-8065, 24 hours; read-out: Cytotoxicity in HepG2 ATCC HB-8065 Cell Line, IC50. An outline of the steps: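 HepG2 cells (15,000/well, MEM with 1% NEAA and 1% pyruvate) were grown 2 days, then exposed to compounds in duplicate for 24 h at 1.28% DMSO. Viability was read as ATP by CellTiter-Glo luminescence relative to DMSO-only wells. IC50 is in μg/mL.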

In data set [4] the test system is bacteria (ATCC reference strains). Put plainly: Antibacterial activity, MIC by broth micro-dilution (CLSI). Background: Dilution methods test growth across graded concentrations, often in twofold steps.
The mark [5] stands for this setting: Acinetobacter baumannii, read-out: Antibacterial Activity (MIC), E = A. baumannii B1931.
Setting [6] is: Enterobacter cloacae, read-out: Antibacterial Activity (MIC), B = Enterobacter cloacae B1966.
[7] abbreviates: Escherichia coli, ATCC25922, read-out: Antibacterial Activity (MIC), A = E. coli ATCC 25922.
The mark [8] stands for this setting: Haemophilus influenzae, ATCC49247, read-out: Antibacterial Activity (MIC), F = H. influenzae ATCC 49247.
[9] abbreviates: Klebsiella pneumoniae, ATCC700603, read-out: Antibacterial Activity (MIC), C = K. pneumoniae ATCC 700603.
Where [10] appears, read: Pseudomonas aeruginosa, ATCC27853, read-out: Antibacterial Activity (MIC), D = P. aeruginosa ATCC 27853.

Sequence of Isoleucyl-tRNA synthetase (IleRS) (P00956 whole entry, looked up): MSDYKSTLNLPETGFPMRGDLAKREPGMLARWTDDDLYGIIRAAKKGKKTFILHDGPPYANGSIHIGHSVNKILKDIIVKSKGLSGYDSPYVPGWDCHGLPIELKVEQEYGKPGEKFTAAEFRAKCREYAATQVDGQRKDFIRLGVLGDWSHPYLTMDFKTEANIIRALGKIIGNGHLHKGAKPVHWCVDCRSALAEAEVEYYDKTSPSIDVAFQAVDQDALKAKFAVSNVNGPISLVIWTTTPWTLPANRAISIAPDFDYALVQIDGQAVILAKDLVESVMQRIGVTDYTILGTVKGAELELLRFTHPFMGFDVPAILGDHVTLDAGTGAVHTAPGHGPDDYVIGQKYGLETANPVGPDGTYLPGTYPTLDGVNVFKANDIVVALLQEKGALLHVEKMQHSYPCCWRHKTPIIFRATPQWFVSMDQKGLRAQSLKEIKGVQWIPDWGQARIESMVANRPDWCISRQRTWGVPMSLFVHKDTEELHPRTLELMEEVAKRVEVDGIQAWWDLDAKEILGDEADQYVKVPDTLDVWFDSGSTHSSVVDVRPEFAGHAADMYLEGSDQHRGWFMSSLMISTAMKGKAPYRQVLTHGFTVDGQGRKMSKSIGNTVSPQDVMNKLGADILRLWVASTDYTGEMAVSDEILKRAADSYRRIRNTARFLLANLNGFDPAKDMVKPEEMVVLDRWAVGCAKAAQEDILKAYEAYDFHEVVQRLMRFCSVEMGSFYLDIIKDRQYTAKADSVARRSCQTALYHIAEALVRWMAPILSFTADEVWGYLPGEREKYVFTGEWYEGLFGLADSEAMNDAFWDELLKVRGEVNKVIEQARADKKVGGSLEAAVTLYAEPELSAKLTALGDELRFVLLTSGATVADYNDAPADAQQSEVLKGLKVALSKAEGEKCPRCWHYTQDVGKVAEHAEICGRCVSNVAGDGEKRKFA
Sequence of Leucyl-tRNA synthetase (LeuRS) (P07813 whole entry, looked up): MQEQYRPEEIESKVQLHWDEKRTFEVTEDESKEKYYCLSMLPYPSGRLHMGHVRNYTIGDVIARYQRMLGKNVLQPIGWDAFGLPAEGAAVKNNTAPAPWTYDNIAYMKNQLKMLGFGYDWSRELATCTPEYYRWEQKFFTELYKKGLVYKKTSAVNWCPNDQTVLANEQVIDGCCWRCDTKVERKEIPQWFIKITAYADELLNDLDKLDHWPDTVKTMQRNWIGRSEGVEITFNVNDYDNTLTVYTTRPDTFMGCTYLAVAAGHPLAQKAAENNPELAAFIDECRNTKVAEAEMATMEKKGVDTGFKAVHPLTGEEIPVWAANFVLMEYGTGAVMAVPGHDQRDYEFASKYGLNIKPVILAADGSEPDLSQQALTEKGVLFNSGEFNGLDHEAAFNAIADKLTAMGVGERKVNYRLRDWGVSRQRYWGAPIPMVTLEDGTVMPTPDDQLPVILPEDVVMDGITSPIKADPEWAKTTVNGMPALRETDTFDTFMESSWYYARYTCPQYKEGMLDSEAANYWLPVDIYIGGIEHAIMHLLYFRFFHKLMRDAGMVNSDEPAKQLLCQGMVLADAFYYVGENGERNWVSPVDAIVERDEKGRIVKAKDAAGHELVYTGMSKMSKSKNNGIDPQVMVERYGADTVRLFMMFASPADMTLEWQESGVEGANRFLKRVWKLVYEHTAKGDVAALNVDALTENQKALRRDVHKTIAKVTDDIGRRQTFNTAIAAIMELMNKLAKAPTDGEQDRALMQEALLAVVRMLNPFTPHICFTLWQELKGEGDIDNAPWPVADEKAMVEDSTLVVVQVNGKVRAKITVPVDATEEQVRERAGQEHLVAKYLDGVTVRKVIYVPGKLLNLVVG

Regarding `CC[C@H](C)[C@H](N)C(=O)N=[S@@](N)(=O)c1ccc2c(c1)CCO2` [ANASIA-053-1], in data set [1], the IC50 amounted to 20.2 µM.
As for `CC[C@H](C)[C@H](N)C(=O)N=[S@](N)(=O)c1ccsc1Cl` [ANASIA-078-1], in data set [1], the IC50 turned out to be 16.4 µM.
Still for that read-out and setting: the same measure for `CC[C@H](C)[C@H](N)C(=O)N=[S@](N)(=O)c1ccc(Cl)s1` [ANASIA-029-1]: 67.4 µM.
With `CC[C@H](C)[C@H](N)C(=O)N=[S@](N)(=O)c1cccs1` (single isomer, unassigned) [ANASIA-028-1], the IC50 in data set [1] was found to be 46.5 µM.
Same read-out and setting: the same measure for `CC[C@H](C)[C@H](N)C(=O)N=[S@@](N)(=O)c1scc(Br)c1Br` [ANASIA-116-2]: 0.95 µM; for `CC[C@H](C)[C@H](N)C(=O)N=[S@](N)(=O)c1csc2ccccc12` [ANASIA-057-1]: 27.5 µM; for `CC[C@H](C)[C@H](N)C(=O)N=[S@](N)(=O)c1cscc1C` [ANASIA-079-1]: 19.8 µM.
As to `CC[C@H](C)[C@H](N)C(=O)N=[S@](N)(=O)c1csc(Cl)c1` [ANASIA-080-1], the IC50 in data set [1] is 1.14 µM.
The same measure, in the same setting: in the case of `CC[C@H](C)[C@H](N)C(=O)N=[S@](N)(=O)c1ccc(OC)cc1` [ANASIA-055-1] it was 35.1 µM.
`CC[C@H](C)[C@H](N)C(=O)N=S(N)(=O)c1csc2ccsc12` (some centres unmarked) [ANASIA-084]: the concentration for half-maximal inhibition (IC50) in data set [1] turned out to be 2.82 µM.
On the same count and under the same terms, in the case of `CC[C@H](C)[C@H](N)C(=O)N=[S@](N)(=O)c1cccc(C(C)(C)C)c1` [ANASIA-056-1] it was 84 µM; in that of `CC[C@H](C)[C@H](N)C(=O)N=[S@@](N)(=O)c1cccc(OC(F)F)c1` [ANASIA-069-2], 13.7 µM.
For `CC[C@H](C)[C@H](N)C(=O)N=[S@](N)(=O)c1scc(Br)c1Br` [ANASIA-116-1], the IC50 in data set [1] was 3.83 µM.
On the same count and under the same terms, the same measure for `CC[C@H](C)[C@H](N)C(=O)N=[S@](N)(=O)c1ccc2c(c1)OCO2` [ANASIA-115-1]: 4.7 µM; for `CC[C@H](C)[C@H](N)C(=O)N=[S@](N)(=O)c1ccc2cccnc2c1` [ANASIA-054-1]: 83.7 µM; for `CC[C@H](C)[C@H](N)C(=O)N=[S@](N)(=O)c1cccc(C(F)(F)F)c1` [ANASIA-072-1]: 53.1 µM.
Take `CC[C@H](C)[C@H](N)C(=O)N=[S@@](N)(=O)c1ccc(Cl)c(Cl)c1` [ANASIA-036-2]: the IC50 in data set [1] was determined as 30.6 µM.
In the case of `CC[C@H](C)[C@H](N)C(=O)N=[S@@](N)(=O)c1ccsc1Cl` [ANASIA-078-2], the IC50 in data set [1] is 0.599 µM.
On the same count and under the same terms, the same measure for `CC[C@H](C)[C@H](N)C(=O)N=[S@](N)(=O)c1cccc(Cl)c1` [ANASIA-033-1]: 67.6 µM; for `CC[C@H](C)[C@H](N)C(=O)N=[S@](N)(=O)c1cccc(-c2ccccc2)c1` [ANASIA-032-1]: 50.8 µM.
As for `CC[C@H](C)[C@H](N)C(=O)N=[S@@](N)(=O)c1csc(Cl)c1` [ANASIA-080-2], the IC50 in data set [1] turned out to be 41.3 µM.
Still for that read-out and setting: the same measure for `CC[C@H](C)[C@H](N)C(=O)N=[S@@](N)(=O)c1cccc(Oc2ccc(Cl)cc2)c1` [ANASIA-052-2]: 40.1 µM; for `CC[C@H](C)[C@H](N)C(=O)N=[S@](N)(=O)c1cccc(OC(F)(F)F)c1` [ANASIA-077-1]: 40.8 µM.
`CC[C@H](C)[C@H](N)C(=O)N=S(N)(=O)c1nc(Cl)cs1` (some centres unmarked) [ANASIA-058]: in data set [1], the IC50 came out at 58.6 µM.
As to `CC(C)C[C@H](N)C(=O)N=[S@](N)(=O)c1sccc1Cl.Cl` [ANASIA-012-1], in data set [2], half-maximal inhibition (IC50) was put at 0.0874 µM. Besides, the IC50 at 24 h in data set [3] was over 64 µg/mL. For the same compound, the MIC in data set [4] (setting [5]) came to 64 µg/mL; in data set [4] (setting [6]) it was 32 µg/mL; in data set [4] (setting [7]), 4 µg/mL; in data set [4] (Escherichia coli, BAA2469, read-out: Antibacterial Activity (MIC), G = E. coli BAA-2469), 16 µg/mL; in data set [4] (setting [8]), 8 µg/mL; in data set [4] (setting [9]) it was 64 µg/mL. The MIC in data set [4] (setting [10]) was over 64 µg/mL.
`CC(C)C[C@H](N)C(=O)N=[S@](N)(=O)c1cccc(C(C)C)c1.Cl` [ANASIA-043-1] displayed an IC50 in data set [2] of 0.112 µM. In addition, the IC50 at 24 h in data set [3] was over 64 µg/mL. The MIC was over 64 µg/mL in data set [4] (setting [5]); over 64 µg/mL in data set [4] (setting [6]); over 64 µg/mL in data set [4] (setting [7]); 45.3 µg/mL in data set [4] (setting [8]); over 64 µg/mL in data set [4] (setting [9]); over 64 µg/mL in data set [4] (setting [10]).
